Experimental data: PMC5041986 (Oncotarget, 2016)

How the values were obtained:
SNU-16 cells = assay: MTT cell viability assay; format: cell-based; conditions: SNU-16, 5 μM, 72 h, mean
Description: (§1) Cells were seeded in 96-well plates and exposed to DMSO, or indicated compounds for 72 hours. Cell viability was assessed using the 3-(4,5-dimethylthiazol-2-yl)-2,5-diphenyltetrazolium bromide (MTT) assay as described previously [46]. Briefly, 100 μl of 0.5 mg/ml MTT were added to each well and incubated at 37°C for 1 hour. After that, 100 μl of extraction reagents (0.1 M sodium acetate buffer for suspension cells or DMSO for attached cells) were added to each well to lyse cells and absorbance at 550 nm was measured. Cell viability was expressed as the percentage of surviving cells in drug-treated versus DMSO-treated control cells (which was considered as 100% viability).

PLC/PRF/5 cells = assay: MTT cell viability assay; format: cell-based; conditions: PLC5/PRF/5, 5 μM, 72 h, mean
Description: as §1

RT-112 cells [1] = assay: MTT cell viability assay; format: cell-based; conditions: 72 h, mean
Description: as §1

Hep3B cells = assay: MTT cell viability assay; format: cell-based; conditions: 72 h, mean
Description: as §1

RT-112 cells [2] = assay: Flow cytometric cell cycle analysis; format: cell-based; conditions: flow cytometry; for accumulation of the sub-G1 phase (apoptotic cell death): 48 h to 72 h
Description: Cells were seeded in 6-well plates and treated with DMSO or indicated compounds at various concentrations for the indicated times. After treatment, the cells were harvested by trypsinization, washed with PBS, and the pellets were fixed in ice-cold 70% ethanol at -20°C overnight. After centrifugation, the cells were incubated for 15 minutes at room temperature in 0.1 mL of phosphate-citric acid buffer (0.2 M NaHPO4, 0.1 M citric acid, and pH 7.8) and then stained with propidium iodide staining buffer containing Triton X-100 (0.1%, v/v), RNase A (100 μg/mL), and propidium iodide (80 μg/mL) for 30 minutes in the dark. DNA contents were analyzed by flow cytometry with CellQuest software (Becton Dickinson, Mountain View, CA, USA). The results were obtained from three independent experiments and the representative data were shown in Supplementary Figure S8 and S9.

HUVEC = assay: MTT cell viability assay; format: cell-based; conditions: Homo sapiens, HUVEC (normal cell), 72 h
Description: as §1

RT-112 tumor xenografts = assay: RT-112 xenograft model; format: in vivo; conditions: 5 mg/kg, ip, qwk, nude mice
Description: Tumors were measured weekly using calipers. Tumor volume (mm^3) was calculated from w^2×l/2 (w = width, l= length in mm of the tumor).

CCN1CCN(c2ccc(Nc3cc(N(C)C(=O)Nc4c(Cl)c(OC)c(Cl)c(OC)c4Cl)ncn3)cc2)CC1 [MPT0L090]
Viability (% of control cells) SNU-16 (5 μM) (SNU-16 cells): 27.5 % of control cells
Viability (% of control cells) PLC5/PRF/5 (5 μM) (PLC/PRF/5 cells): 72.6 % of control cells
Viability (% of control cells) RT-112 (5 μM) (RT-112 cells [1]): 52.6 % of control cells
Viability (% of control cells) RT-112 (10 μM) (RT-112 cells [1]): 12.7 % of control cells
Viability (% of control cells) Hep3B (5 μM) (Hep3B cells): 47.1 % of control cells

CC(=O)O[C@H]1C(=O)[C@@]2(C)[C@H]([C@H](OC(=O)c3ccccc3)[C@]3(O)C[C@H](OC(=O)[C@H](O)[C@@H](NC(=O)c4ccccc4)c4ccccc4)C(C)=C1C3(C)C)[C@]1(OC(C)=O)CO[C@@H]1C[C@@H]2O [paclitaxel]
accumulation of the sub-G1 phase (apoptotic cell death) (RT-112 cells [2]): induced pronounced apoptosis

COc1c(Cl)c(NC(=O)N(C)c2cc(-c3ccc(Cl)cc3)ncn2)c(Cl)c(OC)c1Cl [MPT0L156]
Viability (% of control cells) SNU-16 (5 μM) (SNU-16 cells): 76.7 % of control cells
Viability (% of control cells) PLC5/PRF/5 (5 μM) (PLC/PRF/5 cells): 44.4 % of control cells
Viability (% of control cells) RT-112 (5 μM) (RT-112 cells [1]): 98.3 % of control cells
Viability (% of control cells) RT-112 (10 μM) (RT-112 cells [1]): 34.8 % of control cells
Viability (% of control cells) Hep3B (5 μM) (Hep3B cells): 54.3 % of control cells

COc1c(Cl)c(NC(=O)N(C)c2cc(-c3ccc(C#N)cc3)ncn2)c(Cl)c(OC)c1Cl [MPT0L152]
Viability (% of control cells) RT-112 (10 μM) (RT-112 cells [1]): 55.3 % of control cells

CCN1CCN(c2ccc(Nc3cc(N(C)C(=O)Nc4c(Cl)c(OC)cc(OC)c4Cl)ncn3)cc2)CC1 [BGJ-398, 3-(2,6-dichloro-3,5-dimethoxy-phenyl)-1-{6-[4-(4-ethyl-piperazin-1-yl)-phenylamino]-pyrimidin-4-yl}-1-methyl-urea]
IC50 (HUVEC): 50 nM
G0/G1 cell cycle arrest (RT-112 cells [2]; 4 μM, 24 h): also observed
accumulation of the sub-G1 phase (apoptotic cell death) (RT-112 cells [2]): induced pronounced apoptosis

N.N.[Cl][Pt][Cl] [cisplatin, reference compound]
tumor growth inhibition (% TGI) (RT-112 tumor xenografts): 56.3%

COc1c(Cl)c(NC(=O)N(C)c2cc(-c3cccc(C#N)c3)ncn2)c(Cl)c(OC)c1Cl [MPT0L150]
Viability (% of control cells) RT-112 (10 μM) (RT-112 cells [1]): 75.0 % of control cells
